Literature values, collected in patent US20140220152A1, “Compositions and Methods for Detecting, Treating, or Preventing Reductive Stress” (University of Utah Research Foundation, priority 2007, published 2014).

What was measured:
[1] = target: mammalian glucose-6-phosphate dehydrogenase (G6PDH) (Homo sapiens, UniProt P11413)
[2] = humans taking repeated doses of 250 mg disulfuram daily
[3] = rodents

Sequence of mammalian glucose-6-phosphate dehydrogenase (G6PDH) (P11413 whole entry): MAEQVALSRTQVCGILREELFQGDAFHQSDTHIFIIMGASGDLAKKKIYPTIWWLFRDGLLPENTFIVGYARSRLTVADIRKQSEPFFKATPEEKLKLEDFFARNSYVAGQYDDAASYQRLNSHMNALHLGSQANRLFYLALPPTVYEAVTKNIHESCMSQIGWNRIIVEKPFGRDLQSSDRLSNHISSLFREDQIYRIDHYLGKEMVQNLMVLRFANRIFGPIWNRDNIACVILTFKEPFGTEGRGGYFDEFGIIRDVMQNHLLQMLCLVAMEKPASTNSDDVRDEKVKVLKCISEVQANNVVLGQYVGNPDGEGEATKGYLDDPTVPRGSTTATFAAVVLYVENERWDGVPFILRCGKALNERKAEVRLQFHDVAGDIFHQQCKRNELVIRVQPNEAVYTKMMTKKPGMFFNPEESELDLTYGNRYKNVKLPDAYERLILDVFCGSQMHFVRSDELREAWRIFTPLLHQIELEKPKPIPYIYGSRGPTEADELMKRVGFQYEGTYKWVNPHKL

Row | SMILES | inhibition of mammalian G6PDH [1] | Steady-state serum levels [2] | LD50 [3] [mg/kg]
1 | C[C@]12CC[C@H](O)C[C@@H]1CC[C@@H]1[C@@H]2CC[C@]2(C)C(=O)[C@H](Br)C[C@@H]12 [16α-bromoepiandrosterone] | more potent inhibitor of mammalian G6PDH than DHEA | – | –
2 | C[C@]12CC[C@H](O)CC1=CC[C@@H]1[C@@H]2CC[C@]2(C)C(=O)CC[C@@H]12 [DHEA, Dehydroepiandrosterone] | potent non-competitive inhibitor | – | –
3 | CCN(CC)C(=S)SSC(=S)N(CC)CC [Disulfuram, tetraalkylthiuram disulfide] | – | approximately 1.3 μM | 8600
